Measurements: ChEMBL document CHEMBL3244399, “Antifungal agents. 4. Chemical modification of antibiotics from Polyangium cellulosum var. fulvum. Ester and amide analogues of ambruticin” (1979)
≈ marks a conversion by molar mass, not a printed value. Calls of active or inactive are those of the source. No cut-off for these calls is given here.

Experiments:
[1] = system: Histoplasma capsulatum; experiment: Antifungal activity against Histoplasma capsulatum assessed as growth inhibition by standard broth dilution method; assay type: functional
[2] = Antifungal activity against Microsporum fulvum assessed as growth inhibition by standard broth dilution method; assay type: functional; conditions: Arthroderma fulvum
[3] = system: Streptococcus pyogenes; experiment: Antifungal activity against Streptococcus pyogenes assessed as growth inhibition by standard broth dilution method; assay type: functional
[4] = system: Candida albicans; experiment: Antifungal activity against Candida albicans assessed as growth inhibition by standard broth dilution method; assay type: functional, organism-based

Structure (SMILES) | MIC [1] [µg/mL] | MIC [2] [µg/mL] | MIC [3] | inhibition [4]
CC[C@H]1O[C@@H](/C(C)=C/[C@H](C)/C=C/[C@H]2[C@@H](C)[C@@H]2/C=C/[C@@H]2O[C@H](CC(=O)N3CCCCC3)C[C@H](O)[C@H]2O)CC=C1C | 3.12 (≈ 5.76 µM) | 0.78 (≈ 1.44 µM) | 1.56 µg/mL (≈ 2.88 µM) | inactive
CC[C@H]1O[C@@H](/C(C)=C/[C@H](C)/C=C/[C@H]2[C@@H](C)[C@@H]2/C=C/[C@@H]2O[C@H](CC(=O)NC3CCCCC3)C[C@H](O)[C@H]2O)CC=C1C | 3.12 (≈ 5.61 µM) | 25 (≈ 45 µM) | – | inactive
CC[C@H]1O[C@@H](/C(C)=C/[C@H](C)/C=C/[C@H]2[C@@H](C)[C@@H]2/C=C/[C@@H]2O[C@H](CC(=O)N3CCCC3)C[C@H](OC(C)=O)[C@H]2OC(C)=O)CC=C1C | 50 (≈ 81.7 µM) | > 50 | inactive | inactive
CCC(=O)O[C@H]1[C@H](/C=C/[C@H]2[C@H](C)[C@@H]2/C=C/[C@@H](C)/C=C(\C)[C@H]2CC=C(C)[C@@H](CC)O2)O[C@H](CC(=O)O)C[C@@H]1OC(=O)CC | 6.25 (≈ 10.7 µM) | > 50 | 6.25 µg/mL (≈ 10.7 µM) | inactive
CC[C@H]1O[C@@H](/C(C)=C/[C@H](C)/C=C/[C@H]2[C@@H](C)[C@@H]2/C=C/[C@@H]2O[C@H](CC(=O)O)C[C@H](OC(C)=O)[C@H]2OC(C)=O)CC=C1C (relative stereo) | 3.12 (≈ 5.58 µM) | 3.12 (≈ 5.58 µM) | 6.25 µg/mL (≈ 11.2 µM) | inactive
CCCCNC(=O)C[C@@H]1C[C@H](O)[C@@H](O)[C@H](/C=C/[C@H]2[C@H](C)[C@@H]2/C=C/[C@@H](C)/C=C(\C)[C@H]2CC=C(C)[C@@H](CC)O2)O1 | 1.56 (≈ 2.94 µM) | 6.25 (≈ 11.8 µM) | 1.56 µg/mL (≈ 2.94 µM) | inactive
CC[C@H]1O[C@@H](/C(C)=C/[C@H](C)/C=C/[C@H]2[C@@H](C)[C@@H]2/C=C/[C@@H]2O[C@H](CC(=O)OC)C[C@H](OC(C)=O)[C@H]2OC(C)=O)CC=C1C (relative stereo) | 12.5 (≈ 21.8 µM) | > 50 | inactive | inactive
CC[C@H]1O[C@@H](/C(C)=C/[C@H](C)/C=C/[C@H]2[C@@H](C)[C@@H]2/C=C/[C@@H]2O[C@H](CC(=O)NCc3ccccc3)C[C@H](O)[C@H]2O)CC=C1C | 6.25 (≈ 11.1 µM) | > 50 | 3.12 µg/mL (≈ 5.53 µM) | inactive
CC[C@H]1O[C@@H](/C(C)=C/[C@H](C)/C=C/[C@H]2[C@@H](C)[C@@H]2/C=C/[C@@H]2O[C@H](CC(=O)OC)C[C@H](OC(=O)Nc3ccccc3)[C@H]2OC(=O)Nc2ccccc2)CC=C1C | 25 (≈ 34.4 µM) | > 50 | inactive | inactive
CC[C@H]1O[C@@H](/C(C)=C/[C@H](C)/C=C/[C@H]2[C@@H](C)[C@@H]2/C=C/[C@@H]2O[C@H](CC(=O)O)C[C@H](OC=O)[C@H]2OC=O)CC=C1C | 1.56 (≈ 2.94 µM) | 1.56 (≈ 2.94 µM) | 25 µg/mL (≈ 47.1 µM) | inactive
CC[C@H]1O[C@@H](/C(C)=C/[C@H](C)/C=C/[C@H]2[C@@H](C)[C@@H]2/C=C/[C@@H]2O[C@H](CC(=O)OC)C[C@H](O)[C@H]2O)CC=C1C (relative stereo) | 0.39 (≈ 0.798 µM) | 0.39 (≈ 0.798 µM) | inactive | inactive
CC[C@H]1O[C@@H](/C(C)=C/[C@H](C)/C=C/[C@H]2[C@@H](C)[C@@H]2/C=C/[C@@H]2O[C@H](CC(=O)OC)C[C@@H]3OC(=O)O[C@@H]23)CC=C1C (relative stereo) | 0.78 (≈ 1.52 µM) | 0.39 (≈ 0.758 µM) | inactive | inactive
CC[C@H]1O[C@@H](/C(C)=C/[C@H](C)/C=C/[C@H]2[C@@H](C)[C@@H]2/C=C/[C@@H]2O[C@H](CC(=O)N(C(=O)NC3CCCCC3)C3CCCCC3)C[C@H](O)[C@H]2O)CC=C1C | > 50 | > 50 | inactive | inactive
CC[C@H]1O[C@@H](/C(C)=C/[C@H](C)/C=C/[C@H]2[C@@H](C)[C@@H]2/C=C/[C@@H]2O[C@H](CC(=O)NC3CCCCC3)C[C@H](OC(C)=O)[C@H]2OC(C)=O)CC=C1C | > 50 | > 50 | inactive | inactive
CC[C@H]1O[C@@H](/C(C)=C/[C@H](C)/C=C/[C@H]2[C@@H](C)[C@@H]2/C=C/[C@@H]2O[C@H](CC(=O)OC)C[C@H](OC=O)[C@H]2OC=O)CC=C1C | 3.12 (≈ 5.73 µM) | 12.5 (≈ 22.9 µM) | inactive | inactive
CC[C@H]1O[C@@H](/C(C)=C/[C@H](C)/C=C/[C@H]2[C@@H](C)[C@@H]2/C=C/[C@@H]2O[C@H](CC(=O)N3CCCC3)C[C@H](O)[C@H]2O)CC=C1C | 0.39 (≈ 0.739 µM) | 0.78 (≈ 1.48 µM) | 3.12 µg/mL (≈ 5.91 µM) | inactive
CC[C@H]1O[C@@H](/C(C)=C/[C@H](C)/C=C/[C@H]2[C@@H](C)[C@@H]2/C=C/[C@@H]2O[C@H](CC(=O)O)C[C@H](O)[C@H]2O)CC=C1C (relative stereo) [AMBRUTICIN] | 0.195 (≈ 0.411 µM) | 0.098 (≈ 0.206 µM) | 25 µg/mL (≈ 52.7 µM) | inactive
CCCCNC(=O)C[C@@H]1C[C@H](OC(C)=O)[C@@H](OC(C)=O)[C@H](/C=C/[C@H]2[C@H](C)[C@@H]2/C=C/[C@@H](C)/C=C(\C)[C@H]2CC=C(C)[C@@H](CC)O2)O1 | – | – | – | inactive
CCCC(=O)O[C@H]1[C@H](/C=C/[C@H]2[C@H](C)[C@@H]2/C=C/[C@@H](C)/C=C(\C)[C@H]2CC=C(C)[C@@H](CC)O2)O[C@H](CC(=O)O)C[C@@H]1OC(=O)CCC | 12.5 (≈ 20.3 µM) | > 50 | 6.25 µg/mL (≈ 10.2 µM) | inactive
CC[C@H]1O[C@@H](/C(C)=C/[C@H](C)/C=C/[C@H]2[C@@H](C)[C@@H]2/C=C/[C@@H]2O[C@H](CC(=O)N3CCCCC3)C[C@H](OC(C)=O)[C@H]2OC(C)=O)CC=C1C | – | – | – | inactive
CC[C@H]1O[C@@H](/C(C)=C/[C@H](C)/C=C/[C@H]2[C@@H](C)[C@@H]2/C=C/[C@@H]2O[C@H](CC(=O)NCc3ccccc3)C[C@H](OC(C)=O)[C@H]2OC(C)=O)CC=C1C | – | – | – | inactive
CC[C@H]1O[C@@H](/C(C)=C/[C@H](C)/C=C/[C@H]2[C@@H](C)[C@@H]2/C=C/[C@@H]2O[C@H](CC(=O)N(C(=O)NC3CCCCC3)C3CCCCC3)C[C@H](OC(C)=O)[C@H]2OC(C)=O)CC=C1C | > 50 | > 50 | inactive | inactive
CC[C@H]1O[C@@H](/C(C)=C/[C@H](C)/C=C/[C@H]2[C@@H](C)[C@@H]2/C=C/[C@@H]2O[C@H](CC(=O)OC)C[C@H](OC(=O)Nc3ccc(Cl)cc3)[C@H]2OC(=O)Nc2ccc(Cl)cc2)CC=C1C | 50 (≈ 62.8 µM) | > 50 | inactive | inactive
